The text below walks through data of US12319693B2, “Crystalline forms of CFTR modulators” (Vertex Pharmaceuticals Incorporated, priority 2019, dated 2025).

A value given as a limit tells only on which side of the number the result lay.

Series [1] in a line: Relative stability of polymorphic / solvate forms. Type of series: physicochemical. The settings on record: water activity ≤0.95 at ambient temperature.
Series [2] has as its target CFTR-mediated chloride transport (Homo sapiens, UniProt P13569). Briefly: Membrane potential dye assay in human intestinal epithelial enteroid cells. Conditions: 18-24 h incubation, acute 10 μM forskolin + 300 nM Compound III. Type of series: cell-based. On the procedure:
Base medium (ADF+++) consisted of Advanced DMEM/Ham's F12, 2 mM Glutamax, 10 mM HEPES, 1μ/ml penicillin/streptomycin.
Intestinal enteroid maintenance medium (IEMM) consisted of ADF+++, 1×B27 supplement, 1×N2 supplement, 1.25 mM N-acetyl cysteine, 10 mM Nicotinamide, 50 ng/mL hEGF, 10 nM Gastrin, 1 μg/mL hR-spondin-1, 100 ng/mL hNoggin, TGF-b type 1 inhibitor A-83-01, 100 μg/mL Primocin, 10 μM P38 MAPK inhibitor SB202190.
Bath 1 Buffer consisted of 1 mM MgCl2, 160 mM NaCl, 4.5 mM KCl, 10 mM HEPES, 10 mM Glucose, 2 mM CaCl2).
Chloride Free Buffer consisted of 1 mM Magnesium Gluconate, 2 mM Calcium Gluconate, 4.5 mM Potassium Gluconate, 160 mM Sodium Gluconate, 10 mM HEPES, 10 mM Glucose.
Bath1 Dye Solution consisted of Bath 1 Buffer, 0.04% Pluronic F127, 20 μM Methyl Oxonol, 30 μM CaCCinh-A01, 30 μM Chicago Sky Blue. […]
Enteroid cells were incubated with test compound in IEMM for 18-24 h at 37° C., 95% humidity and 5% CO2. […] Chloride transport was initiated by addition of Chloride Free Dye Stimulation Solution and the fluorescence signal was read for 15 min. […] Chloride transport was then expressed as a percentage of the chloride transport following treatment with 3 μM Compound I, 3 μM Compound II, and 300 nM acute Compound III triple combination control (% Activity). […]

Series [3] addresses T1, F508del CFTR (Homo sapiens, UniProt P13569, DEL508-508).
T1 construct: HBE cells derived from 3 F508del homozygous donors and 5 F508del/MF donors; endogenous in cells; host or cells: primary HBE cells from F508del/F508del and F508del/MF donors
The experiment in a line: Ussing chamber chloride transport in F508del/F508del HBE cells. Format: cell-based. The settings on record: for chloride transport (effect in words): Compound I alone 16 to 24 h, Compound III added in the presence of Compound I or Compound I/Compound II. On the procedure: (§1) Ussing chamber studies were conducted to measure F508del CFTR-mediated chloride transport in HBE cells derived from 3 F508del homozygous donors and 5 F508del/MF donors (G542X, 3 donors; E585X, 1 donor; 3905InsT, 1 donor). As a positive control, maximally effective concentrations of N-(benzenesulfonyl)-6-[3-[2-[1-(trifluoromethyl)cyclopropyl]ethoxy]pyrazol-1-yl]-2-[(4S)-2,2,4-trimethylpyrrolidin-1-yl]pyridine-3-carboxamide (see WO 2018/064632) and N-[(6-amino-2-pyridyl)sulfonyl]-6-(3-fluoro-5-isobutoxy-phenyl)-2-[(4S)-2,2,4-trimethylpyrrolidin-1-yl]pyridine-3-carboxamide (see WO 2016/057572) in combination with Compound II/Compound III were included in each experiment.
(§2) In these CF cell lines, CFTR-mediated chloride transport was low in the absence of CFTR modulators, which is consistent with little-to-no CFTR at the cell surface. […] However, the efficacy of Compound I/Compound III and Compound I/Compound II/Compound III was similar at their respective EC90 values.

Series [4] in a line: Pharmacokinetics after a single oral administration in male monkeys. Type of series: in vivo. Conditions: nominal dose 1 mg/kg, oral bioavailability. The procedure: (§3) Following a single oral administration of Compound I in male animals, Compound I mean tmax values were 9 h in rats, 4 h in dogs, and 3 h in monkeys.
A short description of series [5]: Systemic exposure with increasing dose and repeated oral administration for 28 d in dogs. Format: in vivo. The settings on record: as the dose increased. The procedure:
(§4) Following repeated oral administration of Compound I for 28 d in rats and dogs, accumulation of Compound I exposure was observed. Systemic exposure to Compound I on Day 28 was higher than on Day 1 (Day 28/Day 1 AUC024h ratio ranged from 1.63 to 2.70 in male rats, 5.01 to 8.26 in female rats, 1.73 to 2.64 in male dogs, and 1.82 to 2.23 in female dogs).

Series [6] is described as follows: Pharmacokinetics after a single oral administration in male rats. Format: in vivo. The procedure:
as §3

Series [7] can be described thus: Safety analysis of ongoing clinical study (Cohorts A1 to A5, B, C). Type of series: in vivo, human. On the procedure:
A safety analysis of an ongoing clinical study was performed for 37 subjects in Cohorts A1 to A5, 33 subjects in Cohort B, and 17 subjects in Cohort C, who were exposed to at least 1 dose of study drug (Compound I or placebo) as a monotherapy and as part of a triple combination with Compound II or Compound III.

A short description of series [8]: Systemic exposure with increasing dose and repeated oral administration for 28 d in rats. Type of series: in vivo. The procedure: as §4
Series [9] is described as follows: Pharmacokinetics after a single oral administration in male dogs. Type of series: in vivo. The settings on record: nominal dose 1 mg/kg. The procedure:
as §3

Series [10] has as its target T1, F508del CFTR. The experiment in a line: Ussing chamber chloride transport in F508del/MF HBE cells. Format: cell-based. Conditions: for chloride transport (effect in words): Compound I alone 16 to 24 h, Compound III added in the presence of Compound I or Compound I/Compound II. On the procedure:
as §1, §2

[11] abbreviates: with a fixed combination of Compound II.
Where [12] appears, read: with a fixed concentration of Compound III or Compound II/Compound III.

T1 sequence (P13569 with tags, fused parts or gaps DEL508-508): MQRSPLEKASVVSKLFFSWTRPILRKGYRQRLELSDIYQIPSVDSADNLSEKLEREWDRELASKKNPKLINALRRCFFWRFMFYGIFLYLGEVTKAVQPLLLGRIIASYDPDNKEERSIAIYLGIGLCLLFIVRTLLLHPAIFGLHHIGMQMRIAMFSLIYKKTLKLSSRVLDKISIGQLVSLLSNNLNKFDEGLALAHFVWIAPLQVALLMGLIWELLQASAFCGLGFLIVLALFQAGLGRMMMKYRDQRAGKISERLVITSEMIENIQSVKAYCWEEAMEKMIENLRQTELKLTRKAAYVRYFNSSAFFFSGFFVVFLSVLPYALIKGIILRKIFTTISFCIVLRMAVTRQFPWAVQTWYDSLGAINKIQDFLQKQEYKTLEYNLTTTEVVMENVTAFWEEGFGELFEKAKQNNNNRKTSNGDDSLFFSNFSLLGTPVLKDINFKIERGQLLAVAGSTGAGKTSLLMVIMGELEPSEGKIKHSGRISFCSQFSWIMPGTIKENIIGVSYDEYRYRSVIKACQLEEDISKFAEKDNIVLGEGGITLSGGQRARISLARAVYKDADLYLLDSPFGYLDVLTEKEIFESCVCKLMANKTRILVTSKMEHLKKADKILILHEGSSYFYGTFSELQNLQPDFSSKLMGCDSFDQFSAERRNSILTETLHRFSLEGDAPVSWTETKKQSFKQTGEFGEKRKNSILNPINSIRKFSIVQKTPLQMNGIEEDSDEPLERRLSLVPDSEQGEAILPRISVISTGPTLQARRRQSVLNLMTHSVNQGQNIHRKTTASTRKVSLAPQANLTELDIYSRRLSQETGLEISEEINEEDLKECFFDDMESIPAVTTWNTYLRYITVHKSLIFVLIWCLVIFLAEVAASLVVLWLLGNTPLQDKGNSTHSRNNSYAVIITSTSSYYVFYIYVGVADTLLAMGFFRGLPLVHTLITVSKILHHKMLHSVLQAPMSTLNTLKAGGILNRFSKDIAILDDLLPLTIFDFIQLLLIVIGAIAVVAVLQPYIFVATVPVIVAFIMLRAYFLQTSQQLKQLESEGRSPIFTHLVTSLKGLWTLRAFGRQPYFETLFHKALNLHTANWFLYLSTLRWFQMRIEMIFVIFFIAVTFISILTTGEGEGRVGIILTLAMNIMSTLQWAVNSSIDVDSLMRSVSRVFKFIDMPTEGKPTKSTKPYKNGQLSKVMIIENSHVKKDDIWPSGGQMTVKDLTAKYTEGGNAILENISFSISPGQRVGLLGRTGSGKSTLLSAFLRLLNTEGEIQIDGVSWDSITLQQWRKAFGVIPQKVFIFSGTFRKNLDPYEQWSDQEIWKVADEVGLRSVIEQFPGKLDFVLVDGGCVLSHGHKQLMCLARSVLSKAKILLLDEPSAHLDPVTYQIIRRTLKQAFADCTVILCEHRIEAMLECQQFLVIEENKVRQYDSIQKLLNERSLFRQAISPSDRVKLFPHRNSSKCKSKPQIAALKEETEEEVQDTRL
Chain of CFTR-mediated chloride transport (P13569 whole entry): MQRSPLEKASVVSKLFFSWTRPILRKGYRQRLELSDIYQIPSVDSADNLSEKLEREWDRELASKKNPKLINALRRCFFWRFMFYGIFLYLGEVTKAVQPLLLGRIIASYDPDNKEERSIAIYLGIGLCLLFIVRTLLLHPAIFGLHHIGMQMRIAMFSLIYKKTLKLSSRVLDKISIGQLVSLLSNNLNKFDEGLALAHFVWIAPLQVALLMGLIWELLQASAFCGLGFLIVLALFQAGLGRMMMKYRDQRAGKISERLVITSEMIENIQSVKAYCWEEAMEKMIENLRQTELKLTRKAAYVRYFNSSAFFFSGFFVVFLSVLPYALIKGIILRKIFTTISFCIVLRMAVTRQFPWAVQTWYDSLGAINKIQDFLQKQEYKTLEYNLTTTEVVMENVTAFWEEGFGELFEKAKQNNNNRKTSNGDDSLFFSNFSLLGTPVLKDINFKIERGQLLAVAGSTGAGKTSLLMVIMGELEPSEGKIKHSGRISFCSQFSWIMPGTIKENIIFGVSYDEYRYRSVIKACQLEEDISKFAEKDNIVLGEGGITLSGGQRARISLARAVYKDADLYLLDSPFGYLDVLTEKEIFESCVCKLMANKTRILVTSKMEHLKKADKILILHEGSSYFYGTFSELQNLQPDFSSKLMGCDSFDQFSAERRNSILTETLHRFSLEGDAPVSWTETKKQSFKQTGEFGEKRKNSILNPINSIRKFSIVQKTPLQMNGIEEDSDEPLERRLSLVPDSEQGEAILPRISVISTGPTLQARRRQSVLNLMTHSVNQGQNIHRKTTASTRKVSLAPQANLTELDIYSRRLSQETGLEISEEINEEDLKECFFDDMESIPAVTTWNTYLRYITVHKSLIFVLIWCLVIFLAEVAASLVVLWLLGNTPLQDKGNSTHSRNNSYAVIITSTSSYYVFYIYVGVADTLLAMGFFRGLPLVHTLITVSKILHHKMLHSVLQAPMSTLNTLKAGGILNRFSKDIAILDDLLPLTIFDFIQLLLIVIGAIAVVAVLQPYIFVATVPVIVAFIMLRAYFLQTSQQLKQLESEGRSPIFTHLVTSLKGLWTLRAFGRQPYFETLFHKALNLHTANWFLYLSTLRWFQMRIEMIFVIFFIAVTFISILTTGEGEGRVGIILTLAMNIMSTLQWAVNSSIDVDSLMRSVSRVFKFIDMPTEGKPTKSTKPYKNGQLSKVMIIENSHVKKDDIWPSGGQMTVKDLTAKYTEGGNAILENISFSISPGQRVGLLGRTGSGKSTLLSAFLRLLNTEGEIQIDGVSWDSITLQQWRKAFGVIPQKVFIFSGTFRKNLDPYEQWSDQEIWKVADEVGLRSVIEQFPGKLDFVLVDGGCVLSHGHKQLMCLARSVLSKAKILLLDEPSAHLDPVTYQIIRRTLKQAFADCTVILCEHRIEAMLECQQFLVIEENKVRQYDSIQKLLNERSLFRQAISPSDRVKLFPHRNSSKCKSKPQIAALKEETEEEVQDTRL

Regarding `CC1(C)C[C@@H]2CCCNc3cccc(n3)S(=O)(=O)NC(=O)c3ccc(-n4ccc(OCCC5C6(CC6)C56CC6)n4)nc3N1C2` [Compound I free Form A], the relative polymorphic stability entry in series [1] is “most stable polymorphic form”.

Turning to `CC1(C)C[C@@H]2CCCNc3cccc(n3)S(=O)(=O)NC(=O)c3ccc(-n4ccc(OCCC5C6(CC6)C56CC6)n4)nc3N1C2` [Compound I, (14S)-8-[3-(2-{Dispiro[2.0.2.1]heptan-7-yl}ethoxy)-1H-pyrazol-1-yl]-12,12-dimethyl-2λ6-thia-3,9,11,18,23-pentaazatetracyclo[17.3.1.111,14.05,10]tetracosa-1(22),5,7,9,19(23),20-hexaene-2,2,4-trione], the EC50 in series [2] was below 1000 nM. Besides, the “Max. Activity” value in series [2] (% of chloride transport with 3 μM Compound I, 3 μM Compound II, 300 nM acute Compound III control) is on record as “+++ (+++ is >60%)”. Also, the “chloride transport (effect in words)” value at F508del CFTR [3] and at F508del CFTR [10] was “modest increase in chloride transport” in each case. The synergy analysis result on F508del CFTR [3] (setting [11]) is listed as “modestly synergistic”; on F508del CFTR [3] (setting [12]), “highly synergistic”; on F508del CFTR [10] (setting [11]) it was “modestly synergistic”; at F508del CFTR [10] (setting [12]), “highly synergistic”. In addition, the F in [4] is 12.9%; in [6] (nominal dose 3 mg/kg, oral bioavailability), 76.9%; in [9] (oral bioavailability), 49.7%. Moreover, the “increase of systemic exposure with dose” value in series [5] and in [8] (as the dose increased) was “more than doseproportional” each time. Also, the bioavailability in series [6] (rat, in vivo, 3 mg/kg, read-out: Mean oral bioavailability (F)) was determined as 76.9%. Moreover, the safety and tolerability result is “generally safe and well-tolerated” in series [7] (up to 20 mg qd in triple combination with Compound II and Compound III); “generally safe and well-tolerated” in series [7] (up to a dose of 60 mg qd in monotherapy). The “Dosenormalized exposure, sex difference” value in [8] was “higher in female rats than male rats”. The same compound returned a tmax in [9] (mean ± SD (n = 3)) of 4.00 ± 0.00 h.

Consider `CC(C)(C)c1cc(C(C)(C)C)c(NC(=O)c2c[nH]c3ccccc3c2=O)cc1O` [Compound III, N-[2,4-bis(1,1-dimethylethyl)-5-hydroxyphenyl]-1,4-dihydro-4-oxoquinoline-3-carboxamide, reference compound], for which the “chloride transport (effect in words)” value at F508del CFTR [3] and on F508del CFTR [10] was “strongly potentiated chloride transport” in each case.
